Reference: patent EP0054589B1, “Organic phosphoric acid ester derivatives, a process for preparing the same and insecticidal, miticidal or nematocidal compositions containing the same” (priority 1980, dated 1982)

Assays:
tobacco cutworm = test: Long-lasting insecticidal effect on tobacco cutworm (sprayed cabbage plantlet); type: in vivo, Prodenia litura; details: concentration 500 (unit not given), mortality after 48 hours; for Percent Mortality After Application 3rd Day: leaves cut on 3rd day; for Percent Mortality After Application 5th Day: leaves cut on 5th day; for Percent Mortality After Application 7th Day: leaves cut on 7th day; for Percent Mortality After Application 10th Day: leaves cut on 10th day; for Percent Mortality After Application 15th Day: leaves cut on 15th day
How it was run: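 Cabbage plantlets sprayed with water-diluted emulsifiable concentrate and held in a greenhouse; leaves cut on days 3, 5, 7, 10 and 15 and fed to 3rd-instar larvae at 25°C. Percent mortality scored after 48 h; 3 replicates, 30 insects each.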

Cucumber = test: Phytotoxicity on various crops; type: in vivo; set-up: key: Symbol — indicates that no toxicity was observed; details: 500 ppm sprayed; checked visually after 10 days
How it was run: (§1)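 Test compounds, formulated as emulsifiable concentrates and brought to 500 ppm active in water, were sprayed onto the crops in sufficient amount. After ten days in the greenhouse, crop injury was inspected visually.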

Apple = test: Phytotoxicity on various crops; type: in vivo; set-up: key: Symbol — indicates that no toxicity was observed; details: 500 ppm sprayed; checked visually after 10 days
How it was run: as §1

Green Pepper = test: Phytotoxicity on various crops; type: in vivo; set-up: key: Symbol — indicates that no toxicity was observed; details: 500 ppm sprayed; checked visually after 10 days
How it was run: as §1

Cabbage = test: Phytotoxicity on various crops; type: in vivo; set-up: key: Symbol — indicates that no toxicity was observed; details: 500 ppm sprayed; checked visually after 10 days
How it was run: as §1

Tea = test: Phytotoxicity on various crops; type: in vivo; set-up: key: Symbol — indicates that no toxicity was observed; details: 500 ppm sprayed; checked visually after 10 days
How it was run: as §1

Beet = test: Phytotoxicity on various crops; type: in vivo; set-up: key: Symbol — indicates that no toxicity was observed; details: 500 ppm sprayed; checked visually after 10 days
How it was run: as §1

Cotton = test: Phytotoxicity on various crops; type: in vivo; set-up: key: Symbol — indicates that no toxicity was observed; details: 500 ppm sprayed; checked visually after 10 days
How it was run: as §1

Rice = test: Phytotoxicity on various crops; type: in vivo; set-up: key: Symbol — indicates that no toxicity was observed; details: 500 ppm sprayed; checked visually after 10 days
How it was run: as §1

Tomato = test: Phytotoxicity on various crops; type: in vivo; set-up: key: Symbol — indicates that no toxicity was observed; details: 500 ppm sprayed; checked visually after 10 days
How it was run: as §1

egg plant [1] = test: Phytotoxicity on various crops; type: in vivo; set-up: key: Symbol — indicates that no toxicity was observed; details: 500 ppm sprayed; checked visually after 10 days
How it was run: as §1

Kidney Bean = test: Phytotoxicity on various crops; type: in vivo; set-up: key: Symbol — indicates that no toxicity was observed; details: 500 ppm sprayed; checked visually after 10 days
How it was run: as §1

carmine mites = test: Miticidal effect on carmine mite (sprayed kidney bean seedling); type: in vivo, Tetranychus cinnabarius; details: 500 ppm
Description: An emulsifiable concentrate prepared as described in Formulation Example 1 and diluted to a predetermined concentration was sprayed using a spray-gun on a seedling of a kidney bean placed in a pot of 12 cm in diameter to which plant carmine mites were parasitic. After drying in air, seedlings were kept in a green house, and the number of living insects was recorded on the 7th, 14th, 21st and 28th day from the day of application to determine the control effects. Three pots were used for each treatment. The control effect was assessed by the following formula: [formula] • wherein Σ indicates sum and Cb, Tb, Cai and Tai have the following meanings. • Cb: Number of living mites in non-treated sample before application. • Tb: Number of living mites in treated sample before application. • Cai: Number of living mites in non-treated sample 7th, 14th, 21 st or 28th day from the application. • Tai: Number of living mites in treated sample 7th, 14th, 21st or 28th day from the application.

egg plant [2] = test: Phytotoxicity observed visually in the mite test on egg plant; type: in vivo; set-up: key: —: None; +: Slightly toxic; ++: Toxic; +++: Strongly toxic; details: 500 ppm, observed visually on the 7th day after the application
Description: (§2) (A) An emulsifiable concentrate prepared as described in Formulation Example 1 and diluted to a predetermined concentration was sprayed using a spray-gun on a seedling of an egg plant placed in a pot of 12 cm in diametre to which plant carmine mites resistant to Kelthane were parasitic. After drying in air, seedlings were kept in a green house, and the number of living insects was recorded on the 7th, 14th, 21 st and 28th day from the day of application to determine the control effects. Three pots were used for each treatment. The control effect was assessed by the formula described in TEST EXAMPLE 7 above. Further, phytotoxicity was observed visually on the 7th day after the application.
as §2, with “(B) An” for “(A) An”, “Example 3” for “Example 1”, “in diameter” for “in diametre”, “in Test” for “in TEST”

Row | SMILES | Percent Mortality After Application 3rd Day (tobacco cutworm; Table 5) [%] | Percent Mortality After Application 5th Day (tobacco cutworm; Table 5) [%] | Percent Mortality After Application 7th Day (tobacco cutworm; Table 5) [%] | Percent Mortality After Application 10th Day (tobacco cutworm; Table 5) [%] | Percent Mortality After Application 15th Day (tobacco cutworm; Table 5) [%] | Phytotoxicity: Cucumber (Cucumber) | Phytotoxicity: Apple (Apple) | Phytotoxicity: Green Pepper (Green Pepper) | Phytotoxicity: Cabbage (Cabbage) | Phytotoxicity: Tea (Tea) | Phytotoxicity: Beet (Beet) | Phytotoxicity: Cotton (Cotton) | Phytotoxicity: Rice (Rice) | Phytotoxicity: Tomato (Tomato) | Phytotoxicity: Egg Plant (egg plant [1]) | Phytotoxicity: Kidney Bean (Kidney Bean) | Control Effect (%) (carmine mites) | Number of Living Mites after Application 7th Day (carmine mites) | Number of Living Mites after Application 14th Day (carmine mites) | Number of Living Mites after Application 21st Day (carmine mites) | further results
1 | CCCSP(=O)(OC)Oc1ccc2c(c1)OC(C)=CC2(C)C (stereo not drawn) [Compound No. 1] | 100 | 100 | 100 | 100 | 100 | — | — | — | — | — | — | — | — | — | — | — | 99.6 | 0 | 0 | 0 | Number of Living Mites after Application 28th Day (carmine mites): 3; Phytotoxicit (egg plant [2]; Table 13): —
2 | CCCSP(=O)(OCC)Oc1ccc2c(c1)OC(C)=CC2(C)C (stereo not drawn) [Compound No. 2, O-ethyl-S-propyl-O-(2,4,4-trimethyl-1,4-benzopyran-7-yl)phosphorothioate] | 100 | 100 | 100 | 100 | 100 | — | — | — | — | — | — | — | — | — | — | — | 99.0 | 0 | 0 | 0 | Number of Living Mites after Application 28th Day (carmine mites): 11; Phytotoxicit (egg plant [2]; Table 13): —
3 | CCCSP(=S)(OCC)Oc1ccc2c(c1)OC(C)=CC2(C)C (stereo not drawn) [Compound No. 10] | 100 | 100 | 100 | 100 | 96.7 | — | — | — | — | — | — | — | — | — | — | — | 97.6 | 0 | 0 | 2 | Number of Living Mites after Application 28th Day (carmine mites): 19; Phytotoxicit (egg plant [2]; Table 13): —; Phytotoxicit (egg plant [2]; Table 14): —
4 | CCCSP(=O)(OCC)Oc1ccc2c(c1)OC(C)(C)C=C2C (stereo not drawn) [Compound No. 20, O-ethyl-S-propyl-0-(2,2,4-trimethyl-1,2-benzopyran-7-yl)phosphorothioate] | 100 | 100 | 100 | 100 | 33.3 | — | — | — | — | — | — | — | — | — | — | — |  |  |  |  | Percent Mortality After Application 3rd Day (tobacco cutworm; Table 6): 100%; Percent Mortality After Application 5th Day (tobacco cutworm; Table 6): 100%; Percent Mortality After Application 7th Day (tobacco cutworm; Table 6): 100%; Percent Mortality After Application 10th Day (tobacco cutworm; Table 6): 90.0%; Percent Mortality After Application 15th Day (tobacco cutworm; Table 6): 46.7%; Percent Mortality After Application Immediately after Application (tobacco cutworm; Table 6): 100%
5 | CCCSP(=S)(OC)Oc1ccc2c(c1)OC(C)=CC2(C)C (stereo not drawn) [Compound No. 9, 0-methyl-S-propyl-(2,4,4-trimethyl-1,4-benzopyran-7-yl)phosphorodithioate] | 100 | 100 | 100 | 100 | 93.3 | — | — | — | — | — | — | — | — | — | — | — | 99.0 | 0 | 0 | 0 | Number of Living Mites after Application 28th Day (carmine mites): 8; Phytotoxicit (egg plant [2]; Table 13): —
